From patent publication US4704451A, “Mitogenic peptides” (Washington University, priority 1985, dated 1987)

Assays:
[1] = system: J774 murine macrophage-like cells; assay: 3[H]-TdR incorporation in growth-arrested J774 cells; assay type: cell-based
Protocol: (§1) The growth stimulation of macrophage-like cells can be determined by measuring the thymidine uptake of the cells at varying concentrations of the mitogenic peptides of the present invention. This was determined for several macrophage-like cell lines including J774, P388Dl, RAW and PU5. These are well-known murine cell lines available, for example, from the American Type Culture Collection, Rockville, Md.
(§2) ^3 [H]-TdR incorporation. Various cell lines were plated in Dulbeccos's Modified Eagle Medium (DMEM) containing 10% fetal calf serum (FCS) in […] humidified atmosphere at 37° C. at an initial density of 5×10^5 per well in 24 well disposable plastic plates (Falcon, Oxnard, Calif.). Arrest of DNA synthesis (i.e., G0 /G1) was achieved by incubating the cells for 48 hours in serum-free DMEM containing 0.1% bovine serum albumin (BSA). The cells were then exposed to the peptide or to various […], or to FCS for 48 hours. Enhanced thymidine incorporation was assessed following a 2 hour pulse of N-methyl^3 [H]-TdR (1 μCi/ml). The cells were washed ×3 in PBS (phosphate buffered saline, pH 7.4) at 4, precipitated with 10% trichloroacetic acid (30 min at 4) and the insoluble material extracted ×2 with ETOH:ET2 O (3:1 v/v). The precipitate was solubilized in N NaOH and aliquots withdrawn for protein determinations using a dye-binding assay (Bio Rad Labs., Richmond, Calif.) and liquid scintillation spectrometry.
The various cell lines employed in these tests were the murine macrophage-like cell lines J774, P388D1, RAW and PU5. The various […] used in these tests were platelet-derived growth factor (PDGF), epidermal growth factor (EGF), fibroblast growth factor (FGF), and nerve growth factor (NGF). For background information on these known polypeptide growth factors, see, for example, the recent review article by Kris is et al., Biotechnology, February 1985, pp. 135-140; and the comprehensive review in Hormonal Proteins and Peptides, Ed. by Choh Hao Li, Vol. 12, "Growth Factors," Academic Press, 1984. EGF, NGF and FGF are commercially available from Biomedical Technologies, Cambridge, Mass. In a representative test, 24 hours following exposure of the growth-arrested cells to optimal concentrations of the peptide (i.e., 10^-8 M), cell numbers increased approximately two-fold from a control value of […] cells/culture well. […] The results are set forth in FIG. 2 and in Table I, below. In FIG. 2, the baseline tritiated thymidine (^3 [H]-TdR) incorporation in quiescent J774 cells was 5000 cpm±420 s.e.m. (standard error of the mean) per well. The results are expressed as the mean of triplicate determinations.

[2] = system: P388D1 macrophage-like cell line; assay: 3[H]-TdR incorporation in growth-arrested P388D1 cells; assay type: cell-based, murine; details: test (2), P388D1, 10^-7 M (optimal concentration), mean ± s.e.m.
Protocol: as §1
(§3) ^3 [H]-TdR incorporation. Various cell lines were plated in Dulbeccos's Modified Eagle Medium (DMEM) containing 10% fetal calf serum (FCS) in […] humidified atmosphere at 37° C. at an initial density of 5×10^5 per well in 24 well disposable plastic plates (Falcon, Oxnard, Calif.). Arrest of DNA synthesis (i.e., G0 /G1) was achieved by incubating the cells for 48 hours in serum-free DMEM containing 0.1% bovine serum albumin (BSA). The cells were then exposed to the peptide or to various […], or to FCS for 48 hours. Enhanced thymidine incorporation was assessed following a 2 hour pulse of N-methyl^3 [H]-TdR (1 μCi/ml). […]
(§4) The various cell lines employed in these tests were the murine macrophage-like cell lines J774, P388D1, RAW and PU5. […] The results are expressed as the mean of triplicate determinations.

[3] = system: RAW macrophage-like cell line; assay: 3[H]-TdR incorporation in growth-arrested RAW cells; assay type: cell-based, murine; details: test (2), 10^-8 M (optimal concentration), mean ± s.e.m.
Protocol: as §1, §3, §4

[4] = system: murine macrophage-like cell lines J774, P388D1, RAW and PU5; assay: Cell number (proliferation) of growth-arrested macrophage-like cells; assay type: cell-based; details: 24 hours after exposure of growth-arrested cells to 10^-8 M (optimal concentration)
Protocol: as §2
as §4, with “PU5. The various […] used in these tests were platelet-derived growth factor (PDGF), epidermal growth factor (EGF), fibroblast growth factor (FGF), and nerve growth factor (NGF).” for “PU5.”

[5] = system: PU5 macrophage-like cell line; assay: 3[H]-TdR incorporation in growth-arrested PU5 cells; assay type: cell-based, murine; details: test (2), PU5, 10^-6 M (optimal concentration), mean ± s.e.m.
Protocol: as §1, §3, §4

macrophage-like cells = assay: Mitogenic activity for macrophage-like cells; assay type: cell-based
Protocol: as §1

[6] = test (1), J774, >500 ng per well (highest concentration tested), mean ± s.e.m.

epidermal growth factor [EGF]
3[H]-TdR Incorporation/mg Protein (% Increase) [1, 6]: 5.2 ± 0.2 % Increase

fibroblast growth factor [FGF]
3[H]-TdR Incorporation/mg Protein (% Increase) [1, 6]: 0 ± 0.4 % Increase

nerve growth factor [NGF]
3[H]-TdR Incorporation/mg Protein (% Increase) [1, 6]: 0 ± 0.5 % Increase

H-YPPWNKNFTENDLL-OH [Peptide I, H-Tyr-Pro-Pro-Trp-Asn-Lys-Asn-Phe-Thr-Glu-Asn-Asp-Leu-Leu-OH]
3[H]-TdR Incorporation/mg Protein (% Increase) [2]: 226± 22 % Increase | 3[H]-TdR Incorporation/mg Protein (% Increase) ([1]; test (1), J774, 10^-8 M (optimal concentration), 48 h exposure, mean ± s.e.m. of triplicate cultures): 140± 8.5 % Increase | 3[H]-TdR Incorporation/mg Protein (% Increase) ([1]; test (2), J774, 10^-8 M (optimal concentration), mean ± s.e.m.): 190± 12 % Increase | 3[H]-TdR Incorporation/mg Protein (% Increase) [3]: 276± 18 % Increase | increase of cell numbers over control [4]: approximately two-fold | 3[H]-TdR Incorporation/mg Protein (% Increase) [5]: 112± 4.4 % Increase

platelet-derived growth factor [PDGF]
3[H]-TdR Incorporation/mg Protein (% Increase) [1, 6]: 9.4 ± 0.3 % Increase

H-NKNFTENDLL-OH [Peptide IV, H-Asn-Lys-Asn-Phe-Thr-Glu-Asn-Asp-Leu-Leu-OH]
mitogenic activity for macrophage-like cells (macrophage-like cells): inactive

H-TENDLL-OH [Peptide III, H-Thr-Glu-Asn-Asp-Leu-Leu-OH]
mitogenic activity for macrophage-like cells (macrophage-like cells): inactive
